# Test results taken from US12415811B2, “1,2,3',5'-tetrahydro-2'h-spiro[indole-3,1'-pyrrolo[3,4-C]pyrrole]-2,3'-dione compounds as therapeutic agents activating TP53” (ADAMED PHARMA, S.A., priority 2018, dated 2025).
# Read-outs that look alike come from different tables or passages of the source.
# Legend:
# [1] = In vitro intrinsic clearance in human microsomes; type: in vitro ADME; conditions: pH 7.4; human microsomes 0.5 mg/ml, 1 μM compound, 37° C., up to 1 hour; read-out: human MS Clint
# Protocol: (§1) Metabolic stability of the compounds of the invention has been assessed by measurement of the in vitro intrinsic clearance in murine and human microsomes.
# (§2) 10 mM stock solutions of markers and test compounds were prepared in DMSO. These were diluted 100-fold in 91:9 MeCN:DMSO to obtain a 100 μM assay stock. 10 mM NADPH was made up in 0.1M phosphate buffer (pH7.4). Microsomes were thawed in a waterbath at 37° C., and diluted to give a final assay concentration of 0.5 mg/ml.
# (§3) 100 μM assay stocks were added to give a final concentration of 1 μM to incubation tubes containing buffer and NADPH (final assay concentration is 1 mM). Incubation tubes and microsomes were pre-warmed at 37° C. for 3 minutes. The microsomes were then added to the incubation tubes which were kept at 37° C. and shaken using the orbital shaker for the duration of the assay. Samples were taken at 6 pre-determined time points up to 1 hour and transferred to the prepared quench tubes containing an appropriate solvent with internal standard.
# (§4) Quenched samples are mixed thoroughly and protein precipitated at −20° C. for a minimum of 12 hours. Samples were then centrifuged at 4° C. Supernatants were transferred to a fresh 96 well plate, compatible with the auto-sampler. The plate was sealed with a pre-slit silicone mat and analyzed by LC-MS/MS.
# p53-Mdm2 interaction = p53-Mdm2 interaction (Homo sapiens (Human), UniProt Q00987); experiment: Fluorescence polarization (FP) binding assay, inhibition of p53-Mdm2 interaction; conditions: 75 nM Mdm2 (amino acids 1-111), 10 nM FAM-labelled p53 peptide; IC50 transformed to Ki using Kenakin equation
# Sequence of p53-Mdm2 interaction (Q00987 1-111): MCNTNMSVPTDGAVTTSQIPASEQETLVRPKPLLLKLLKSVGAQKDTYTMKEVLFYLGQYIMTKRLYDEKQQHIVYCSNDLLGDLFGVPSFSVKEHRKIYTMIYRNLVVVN
# Protocol: The inhibition of p53-Mdm2 interaction was measured using a fluorescence polarization (FP) binding assay. FP measures the rotational movement of molecules in a homogenous suspension. For this assay, N-terminal domain of Mdm2 protein (amino acids 1-111) is combined with a fluorescein-labeled (FAM) peptide derived from p53 trans-activation domain (Sequence: 5-FAM-TSFAEYWNLLSP). Upon excitation of the fluorescent ligand with linearly polarized light the peptide emits perpendicularly polarized light. If the peptide is bound by Mdm2, rotation will slow down and the perpendicular component will proportionally decrease. In opposition disruption of the peptide-Mdm2 complex due to binding of an inhibitor to the p53 binding site of Mdm2 results in releasing of peptide and decreasing of emitted light polarization.
# Fluorescence polarization experiments were read on Biotek Cytation 5 reader with the 470 nm excitation and 520 nm emission filters for fluorescein. The fluorescence polarization was measured in black 96-well plates (Corning, CLS3991) in room temperature. Purity of Mdm2 was controlled at >95%. Reaction buffer was optimized by adding 5 mM DTT and 0.1% zwitterionic detergent CHAPS to reduce effect of nonspecific interactions.
# The test was performed by combining successive dilution of compounds diluted in dimethyl sulfoxide (DMSO, 5% final concentration) with 75 nM Mdm2 in reaction buffer (PBS, 0.1% CHAPS, 5 mM DTT (dithiothreitol)). After 15 minutes of incubation in room temperature 10 nM FAM-labelled peptide was added. Final reading was performed after 90 minutes of incubation. Dose-dependent binding curves and IC50 values were calculated using GraphPad Prism5 and next transformed to Ki values using Kenakin equation (Table 2).
# [2] = In vitro intrinsic clearance in murine microsomes; type: in vitro ADME; conditions: mouse, pH 7.4; murine microsomes 0.5 mg/ml, 1 μM compound, 37° C., up to 1 hour; read-out: murine MS Clint
# Protocol: as §1, §2, §3, §4
# SJSA-1 xenograft = experiment: In vivo efficacy in the SJSA-1 xenograft model in mice; conditions: for inhibition in vivo at 12.5 mg/kg: Mus musculus, po, 12.5 mg/kg p.o., q1d, SJSA-1 xenograft in Crl:CD-1-Foxn1nu mice, mean
# Protocol: The experiment was conducted on female mice from the Crl:CD-1-Foxn1nu strain. Mice were inoculated subcutaneously in the right flank with cancer cell line SJSA-1 in the amount of 3×10^6 cells suspended in 100 μl HBSS: Matrigel matrix in a 3:1 ratio per mouse. On the 17th day after inoculation mice were divided into groups, so that in each group the mean tumor volume was similar and averaged around 200 mm^3. Experiment groups were selected, each consisting of 8 mice: Control NaCl 0.9% and compounds. Compounds 1-11 were dissolved in 56.60% PEG 400, 9.43% Cremophor RH40, 9.43% ETOH, 18.87% Labrafil M1944CS, 5.67% DMSO. For Compound 107 from WO2015/189799, group of 7 mice was used, and it was dissolved in 15% PEG400, 10% Cremophor EL, 75% H2O.
# […] During the course of experiment mice were weighed before each administration, —twice/thrice a week. Animal welfare was monitored daily. No significant difference in body weight or welfare was observed between experiment groups during and at the end of study.
# Change in tumor volume was monitored twice/thrice a week starting from the first day of administration. Tumor volume was calculated based on its length and width measured with an electronic calipers: V[mm^3]=d^2×D/2
# The tumor volume in the groups was measured up to 101 days after inoculation (72 days after last administration). Results of the experiment were expressed as mean values of tumor growth inhibition (TGI) ±SEM (Table 4). Tumor growth inhibition was calculated using the following formula TGI [%]=[100−[…]]
# where C— mean tumor size in control group, T—mean tumor size in treated group. All calculations and graphs were performed using GraphPad Prism 5 software.
# [3] = system: SJSA-1 osteosarcoma cell line; experiment: Cell viability MTT assay; type: cell-based; conditions: Homo sapiens, 72 h incubation, average of 2-5 experiments
# Protocol: The effect of the invented p53-Mdm2 inhibitors on cell viability has been assessed using MTT assay. It is a colorimetric assay that measures conversion of tetrazolium ring of the soluble yellow dye (MTT) into insoluble purple formazan. This process is catalyzed solely in mitochondrial dehydrogenases of living cells.
# Cells were seeded on 96-well plates and then treated with successive dilutions of tested compounds. After 72 h incubation, MTT was added to the final concentration 0.5 mg/ml. The cells were further incubated for the next 4 h. Then the solution was drained and the remaining formazan crystals were dissolved in 100 μl DMSO. […] All the MTT experiments were independently repeated 2-5 times. Dose-dependent binding curves and IC50 values were calculated using GraphPad Prism 5. The presented IC50 values represent the average value from all the performed experiments (Table 3).
# [4] = after 7 doses, read-out: TGI P.O. 12.5 mg/kg (7 doses) [%]
# [5] = after 12 doses, read-out: TGI P.O. 12.5 mg/kg (12 doses) [%]
Compound,microsomal CLint at 1 μM [1],Ki (p53-Mdm2 interaction),microsomal CLint at 1 μM [2],"effect of treatment on tumors (in words) (SJSA-1 xenograft; 14 doses of 12.5 mg/kg p.o., SJSA-1 xenograft)",inhibition in vivo at 12.5 mg/kg (SJSA-1 xenograft; [4]),inhibition in vivo at 12.5 mg/kg (SJSA-1 xenograft; [5]),"regrowth of lesions during follow-up (SJSA-1 xenograft; after 14 doses of 12.5 mg/kg p.o., follow-up to day 101)",IC50 [3]
"COc1cc(OC)c(-n2cc3c(c2C(C)C)[C@@]2(C(=O)Nc4cc(Cl)ccc42)N(c2ccc(F)c(F)c2)C3=O)cn1 [Compound 8, (3S)-6-chloro-2′-(3,4-difluorophenyl)-5′-(4,6-dimethoxypyridin-3-yl)-6′-(propan-2-yl)-1,2,3′,5′-tetrahydro-2′H-spiro[indole-3,1′-pyrrolo[3,4-c]pyrrole]-2,3′-dione]",< 3 µL/min/mg,1.9 nM,12.8 µL/min/mg,complete eradication of tumors,96.4%,99.7%,none of the lesions exhibited regrowth,0.15 µM
"COc1ncc(-n2cc3c(c2C(C)C)[C@@]2(C(=O)Nc4cc(Cl)ccc42)N(c2cc(Cl)c(F)cc2F)C3=O)c(OC)n1 [Compound 10, (3S)-6-chloro-2′-(5-chloro-2,4-difluorophenyl)-5′-(2,4-dimethoxypyrimidin-5-yl)-6′-(propan-2-yl)-1,2,3′,5′-tetrahydro-2′H-spiro[indole-3,1′-pyrrolo[3,4-c]pyrrole]-2,3′-dione]",< 3.2 µL/min/mg,2 nM,< 3 µL/min/mg,,93.5%,98.8%,,0.4 µM
